Experimental findings from ChEMBL document CHEMBL1127781, “Antitumor agents. 7. Synthesis and antitumor activity of novel hexacyclic camptothecin analogues” (J Med Chem, 1994) are described below.

For one experiment, the system named is HOC-21 cell line. The experiment in a line: Tested in vitro for the inhibition of HOC-21(human ovarian cancer) cell line by MTT assay. It counts as functional, cell-based. Background: Tetrazolium dyes change colour on reduction, which living cells bring about.
Experiment [1] concerns P388. Nature of the experiment: Tested in vitro for the inhibition of P388 (mouse leukemia) cell line by MTT assay. The class given is functional, cell-based.
The test system of the next experiment is QG-56. The experiment in a line: Tested in vitro for the inhibition of QG-56 (human lung squamous cell carcinoma) cell line by MTT assay. It counts as functional, cell-based.
Experiment [2] has as its system Mus musculus. The experiment in a line: Tested for (median survival time of treated/control animals) x100 at dosage of 120 mg/kg. The class given is functional.
Experiment [3] has as its system Mus musculus. The experiment in a line: Tested for (median survival time of treated/control animals) x100 at dosage of 60 mg/kg. The class given is functional.
Experiment [4] in a line: Tested for (median survival time of treated/control animals) x100 at dosage of 480 mg/kg. It counts as functional.
The nature of experiment [5]: Tested for (median survival time of treated/control animals) x100 at dosage of 30 mg/kg. It counts as functional.
Experiment [6] concerns Mus musculus. Nature of the experiment: Tested for (median survival time of treated/control animals) x100 at dosage of 240 mg/kg. It counts as functional.
Experiment [7] can be described thus: Tested for median survival time of treated/control animals) x100 at dosage of 30 mg/kg. It counts as functional.
Experiment [8] can be described thus: Tested for median survival time of treated/control animals) x100 at dosage of 480 mg/kg. The class given is functional.
Experiment [9] is described as follows: Tested for median survival time of treated/control animals) x100 at dosage of 120 mg/kg. It counts as functional.
Experiment [10] is described as follows: Tested for median survival time of treated/control animals) x100 at dosage of 240 mg/kg. The class given is functional.
The nature of experiment [11]: Tested for median survival time of treated/control animals) x100 at dosage of 60 mg/kg. The class given is functional.
A short description of experiment [12]: Tested for (median survival time of treated/control animals) x100 at dosage of 120 mg/kg. The class given is functional.
The nature of experiment [13]: Tested for (median survival time of treated/control animals) x100 at dosage of 240 mg/kg. The class given is functional.
A short description of experiment [14]: Tested for (median survival time of treated/control animals) x100 at dosage of 30 mg/kg. It counts as functional.
The nature of experiment [15]: Tested for (median survival time of treated/control animals) x100 at dosage of 60 mg/kg. It counts as functional.
For experiment [16], the system named is P388. The experiment in a line: Tested in vitro for the inhibition of P388 (mouse leukemia) cell line by MTT assay; 1.95-6.93 ng/mL. It counts as functional, cell-based.

Converted amounts (≈) assume the structure as drawn. Bounds are passed on as bounds.

In the case of `CCC1(O)C(=O)OCc2c1cc1n(c2=O)Cc2c-1nc1cccc(CN)c1c2C` (stereo not given), the IC50 (usually the concentration that inhibits the measured activity by half) with HOC-21 cell line came to 44.8 ng/mL (≈ 0.114 µM); in the experiment with P388 [1], 5.02 ng/mL (≈ 0.0128 µM); in the experiment with QG-56, 6.36 ng/mL (≈ 0.0162 µM).

Turning to `CCC1(O)C(=O)OCc2c1cc1n(c2=O)Cc2c-1nc1cccc(COC(C)=O)c1c2COC(C)=O` (stereo not given), the IC50 with HOC-21 cell line is > 500 ng/mL; with P388 [1], 40.5 ng/mL (≈ 0.0822 µM); in the experiment with QG-56 it was 7.41 ng/mL (≈ 0.015 µM).

`CC[C@@]1(O)C(=O)OCc2c1cc1n(c2=O)Cc2c-1nc1cccc3c1c2CNC3`: the IC50 was found to be 37.8 ng/mL (≈ 0.0969 µM) in the experiment with HOC-21 cell line, 3.39 ng/mL (≈ 0.00871 µM) in the experiment on P388 [1] and 2.98 ng/mL (≈ 0.00765 µM) with QG-56.

As to `CC[C@@]1(O)C(=O)OCc2c1cc1n(c2=O)Cc2c-1nc1ccc(C)c3c1c2CCC3`, the IC50 in the experiment with HOC-21 cell line turned out to be 5.88 ng/mL (≈ 0.0146 µM); in the experiment with P388 [1] it was 0.78 ng/mL (≈ 0.00194 µM); in the experiment with QG-56, 0.68 ng/mL (≈ 0.00169 µM).

In the case of `CC[C@@]1(O)C(=O)OCc2c1cc1n(c2=O)Cc2c-1nc1cccc3c1c2CCCC3`, the half-inhibitory concentration (IC50) in the experiment on HOC-21 cell line came to 15.6 ng/mL (≈ 0.0388 µM); with P388 [1], 1.22 ng/mL (≈ 0.00303 µM); with QG-56, 1.73 ng/mL (≈ 0.0043 µM).

As for `CC[C@@]1(O)C(=O)OCc2c1cc1n(c2=O)Cc2c-1nc1cccc3c1c2COC3`, the IC50 in the experiment with HOC-21 cell line came out at 12.3 ng/mL (≈ 0.0315 µM); in the experiment on P388 [1] it was 0.95 ng/mL (≈ 0.00243 µM); in the experiment on QG-56 it was 1.14 ng/mL (≈ 0.00292 µM).

Consider `CC[C@@]1(O)C(=O)OCc2c1cc1n(c2=O)Cc2c-1nc1cccc(C)c1c2C`, for which the figures for the IC50 in the experiment with HOC-21 cell line, with P388 [1] and in the experiment with QG-56 were > 500 ng/mL, 3.76 ng/mL (≈ 0.00999 µM) and 0.6 ng/mL (≈ 0.00159 µM), respectively.

With `CC[C@@]1(O)C(=O)OCc2c1cc1n(c2=O)Cc2c-1nc1ccc(O)c3c1c2CCC3`, the IC50 came to 12.6 ng/mL (≈ 0.0312 µM) with HOC-21 cell line, 1.6 ng/mL (≈ 0.00396 µM) in the experiment with P388 [1] and 0.26 ng/mL (≈ 0.000643 µM) with QG-56.

Take `CCC1(O)C(=O)OCc2c1cc1n(c2=O)Cc2c-1nc1ccc(O)c3c1c2CCO3` (racemic): the T/C (usually the ratio of treated to control) with Mus musculus [2] is reported as 233%; with Mus musculus [3], 221%; in [4], 19%; in [5] it was 147%; with Mus musculus [6] it was 20%. Further, the IC50 in the experiment with HOC-21 cell line stood at 79 ng/mL (≈ 0.194 µM); with QG-56 it was 1.1 ng/mL (≈ 0.00271 µM).

For `CCC1(O)C(=O)OCc2c1cc1n(c2=O)Cc2c-1nc1ccc(O)c3c1c2CCC3` (racemic), the T/C in [7] is reported as 182%; in experiment [8], 88.5%; in experiment [9] it was 354%; in [10], >392%; in experiment [11] it was 201%. For the same compound, the figures for the IC50 in the experiment with HOC-21 cell line, with P388 [1] and in the experiment with QG-56 were 26.4 ng/mL (≈ 0.0653 µM), 3.8 ng/mL (≈ 0.0094 µM) and 0.5 ng/mL (≈ 0.00124 µM), respectively.

Turning to `CCC1(O)C(=O)OCc2c1cc1n(c2=O)Cc2c-1nc1ccc(O)c3c1c2CC3` (racemic), the T/C in the experiment with Mus musculus [2] is given as 110%; in the experiment on Mus musculus [3], 206%; in experiment [4], 78.2%; in [5], 167%; in the experiment with Mus musculus [6], 90.9%. Moreover, the IC50 in the experiment on HOC-21 cell line turned out to be 15.9 ng/mL (≈ 0.0407 µM); in the experiment on P388 [1], 2.22 ng/mL (≈ 0.00569 µM); with QG-56, 1.25 ng/mL (≈ 0.0032 µM).

Turning to `CCC1(O)C(=O)OCc2c1cc1n(c2=O)Cc2c-1nc1ccc(C)c3c1c2CCO3` (racemic), the T/C with Mus musculus [2] is 273%; with Mus musculus [3] it was 260%; in experiment [4], >376%; in the experiment on Mus musculus [6], 376%. The IC50 turned out to be 41.9 ng/mL (≈ 0.104 µM) in the experiment with HOC-21 cell line, 4.5 ng/mL (≈ 0.0111 µM) with P388 [1] and 1.38 ng/mL (≈ 0.00341 µM) in the experiment on QG-56.

As to `CCC1(O)C(=O)OCc2c1cc1n(c2=O)Cc2cc3ccccc3nc2-1` (racemic), the T/C came to 148% in experiment [12], 163% in experiment [13], 128% in experiment [14] and 128% in experiment [15].

Turning to `CCC1(O)C(=O)OCc2c1cc1n(c2=O)Cc2c-1nc1ccc(C)c3c1c2CCN3` (racemic), the T/C worked out at 207% in the experiment with Mus musculus [2], 180% in experiment [4] and 174% with Mus musculus [6]. Also, the IC50 is 41.8 ng/mL (≈ 0.104 µM) in the experiment with HOC-21 cell line and 1.68 ng/mL (≈ 0.00416 µM) in the experiment with QG-56.

On to `CCC1(O)C(=O)OCc2c1cc1n(c2=O)Cc2c-1nc1ccc(C)c3c1c2CCS3` (racemic), for which the T/C in the experiment on Mus musculus [2] is on record as 293%; in the experiment with Mus musculus [3] it was 224%; in experiment [5], 205%; in [8], >400%; in [10] it was 290%. The IC50 was 35.8 ng/mL (≈ 0.0851 µM) in the experiment on HOC-21 cell line, 3.77 ng/mL (≈ 0.00897 µM) in the experiment on P388 [1] and 3.36 ng/mL (≈ 0.00799 µM) in the experiment with QG-56.

Regarding `CCc1c2c(nc3ccc(O)cc13)-c1cc3c(c(=O)n1C2)COC(=O)[C@]3(O)CC` [7-ETHYL-10-HYDROXYCAMPTOTHECIN], the T/C is reported as 258% in the experiment on Mus musculus [2], 191% with Mus musculus [3], 146% in experiment [5] and 67% in the experiment with Mus musculus [6]. For the same compound, the IC50 in the experiment on HOC-21 cell line came to 123 ng/mL (≈ 0.314 µM); with P388 [16], 6.93 ng/mL (≈ 0.0177 µM); with QG-56, 3.17 ng/mL (≈ 0.00808 µM).

On to `CC[C@@]1(O)C(=O)OCc2c1cc1n(c2=O)Cc2cc3ccccc3nc2-1` [CAMPTOTHECIN], for which the T/C in experiment [12] turned out to be 176%; in [13], 144%; in experiment [14], 130%; in experiment [15], 142%. The IC50 in the experiment with HOC-21 cell line was determined as 14.7 ng/mL (≈ 0.0422 µM); in the experiment with P388 [1] it was 4.74 ng/mL (≈ 0.0136 µM); in the experiment on QG-56, 4.63 ng/mL (≈ 0.0133 µM).
